{"source": "patent US12036194B1", "about": "“Methods of administering solriamfetol to lactating women” (Axsome Malta Ltd., priority 2022, dated 2024)", "assay": "Phase 4 single-dose study: safety and tolerability (adverse events, vital signs, 12-lead ECG, C-SSRS)", "type": "in vivo, human", "conditions": "for Subjects who discontinued due to AE / Subjects with Mild AE / Subjects with Moderate AE / Subjects with SAE / Subjects with an AE considered related to study drug / Subjects with an AE considered unrelated to study drug / Subjects with at least 1 AE: hydrochloride", "procedure": "Pharmacokinetic analysis of breast milk obtained from both breasts (by pumping) was evaluated prior to dose administration and at intervals up to 72 hours postdose. Blood samples were also collected for plasma solriamfetol quantitation and PK analysis predose and at timepoints up to 72 hours postdose. Solriamfetol breast milk and plasma concentrations were measured using validated bioanalytical methods. Safety was assessed throughout the study by 12-lead ECG, vital sign measurements, the Columbia-Suicide Severity Rating Scale (C-SSRS), and the incidence of adverse events (AE).\nVital signs (blood pressure, pulse rate, temperature, and respiratory rate) were measured with the subject in a seated or supine position and resting for at least 5 minutes prior to taking the measurement. The dominant arm was used for blood pressure and pulse rate measurements. On Day 1, vital signs were collected at predose, and at approximately 2 (blood pressure and pulse) and 4 hours (blood pressure and pulse) postdose.\n12-lead ECG was taken with the subject in a supine position and resting for at least 10 minutes prior to taking the measurement. On Day 1, ECGs were collected predose and at approximately 2 hours postdose.\nAdverse events were monitored throughout the study by safety assessments, observations, and subject reporting, including the Safety FU telephone call 5-7 days (i.e., Days 9-11) after check-out from the study facility on Day 4, or ET.\nThe 12-lead ECGs were collected at Screening, Day −1 until Day 4. Single 12-lead ECG was obtained using an ECG machine that automatically calculated the heart rate and measured PR, QRS, QT, and corrected QT interval (QTc) intervals. Any abnormal safety assessments including ECG readings considered clinically significant in the medical and scientific judgment of the investigator were reported as an AE. The investigator had to review the ECG and document it in the source documents. Clinically significant abnormal ECG results reported during Screening were recorded as medical history and those reported after study drug were recorded as AEs.\nSafety analyses were based on the Safety Population. The secondary endpoints for evaluating subject safety and tolerance were the incidence of reported AEs and the laboratory test results for all subjects.\nAdverse events: Adverse events recorded in the electronic case report forms (eCRFs) were coded to SOC and PT using the Medical Dictionary for Regulatory Activities (MedDRA). Treatment-emergent adverse events (TEAEs) are defined as any event with onset date on or after the first dose of study drug or any ongoing event that worsened in severity after the date of the first dose of study drug or any event that was present at baseline but was subsequently considered drug-related by the investigator through the end of the study. The incidence of TEAEs were presented by severity, relationship to study drug, start and end date, seriousness, and outcome. The investigator assessed the severity and relatedness of each AE to study drug. Columbia-Suicide Severity Rating Scale (C-SSRS) data were summarized at scheduled visits and were listed. Other safety analyses were performed as appropriate.\n12 Lead ECG: The number and percentage of subjects who had the following postbaseline clinically notable ECG interval abnormality was summarized: Ventricular rate >100 beats/min or ≤60 beats/min; PR interval ≥200 msec or ≤120 msec; QRS duration ≥100 msec or ≤80 msec; QT interval ≥440 msec or ≤350 msec; QTc Bazett and QTc Fredericia ≥470 msec or ≤330 msec; RR interval ≥1200 msec or ≤600 msec; and QTc Bazette and QTc Fredericia increase from study Baseline Value >30 msec. […]", "key": {"[1]": {"conditions": "Solriamfetol 150 mg single dose, N = 6"}, "[2]": {"conditions": "Solriamfetol 150 mg single dose, N = 6, listed as solriamfetol"}, "[3]": {"conditions": "any post-baseline visit/timepoint, 150 mg, N = 6"}}, "note": "Values joined by “and” are separate entries in the source; they are usually repeats but may differ in a detail not shown here. Equal entries are not always repeated. Structures can show the parent of a compound that is named as a salt.", "data": [{"smiles": "NC(=O)OC[C@H](N)Cc1ccccc1", "note": "[Solriamfetol, (R)-2-amino-3-phenylpropyl carbamate (APC) hydrochloride]", "values": [{"measurement": "abnormal clinically significant ECG findings", "setting": "150 mg single dose, N = 6", "result": "No abnormal clinically significant ECG findings"}, {"measurement": "number of TEAEs of mild intensity (dizziness, headache, agitation; related to study drug)", "setting": "150 mg single dose, N = 6", "result": 3, "unit": "TEAEs"}, {"measurement": "number of TEAEs of moderate intensity (headache; unrelated to study drug)", "setting": "150 mg single dose, N = 6", "result": 1, "unit": "TEAE"}, {"measurement": "outcome of TEAEs", "setting": "150 mg single dose, N = 6", "result": "resolved"}, {"measurement": "subjects reporting suicidal ideation or event under Columbia-Classification Algorithm for Suicide Assessment", "setting": "150 mg single dose, N = 6", "result": "None"}, {"measurement": "subjects with abnormal, clinically significant laboratory findings", "setting": "150 mg single dose, N = 6", "result": "None"}, {"measurement": "total number of TEAEs reported", "setting": "150 mg single dose, N = 6", "result": 4, "unit": "TEAEs"}, {"measurement": "Subjects who discontinued due to AE considered related to study drug", "setting": "[1]", "result": "0 n (%)"}, {"measurement": "Subjects who discontinued due to AE considered unrelated to study drug", "setting": "[1]", "result": "0 n (%)"}, {"measurement": "Subjects with Fatal AE", "setting": "[1]", "result": "0 n (%)"}, {"measurement": "Subjects with Life-threatening AE", "setting": "[1]", "result": "0 n (%)"}, {"measurement": "Subjects with SAE considered related to study drug", "setting": "[1]", "result": "0 n (%)"}, {"measurement": "Subjects with SAE considered unrelated to study drug", "setting": "[1]", "result": "0 n (%)"}, {"measurement": "Subjects with Severe AE", "setting": "[1]", "result": "0 n (%)"}, {"measurement": "TEAE, PT Agitation", "setting": "[1]", "result": "1 (16.7) n (%)"}, {"measurement": "TEAE, PT Dizziness", "setting": "[1]", "result": "1 (16.7) n (%)"}, {"measurement": "TEAE, PT Headache", "setting": "[1]", "result": "2 (33.3) n (%)"}, {"measurement": "TEAE, SOC Nervous system disorders", "setting": "[1]", "result": "2 (33.3) n (%)"}, {"measurement": "TEAE, SOC Psychiatric disorders", "setting": "[1]", "result": "1 (16.7) n (%)"}, {"measurement": "Subjects who discontinued due to AE", "setting": "[1]", "result": "0 n (%)"}, {"measurement": "Subjects with Mild AE", "setting": "[1]", "result": "2 (33.3) n (%)"}, {"measurement": "Subjects with Moderate AE", "setting": "[1]", "result": "1 (16.7) n (%)"}, {"measurement": "Subjects with SAE", "setting": "[1]", "result": "0 n (%)"}, {"measurement": "Subjects with an AE considered related to study drug", "setting": "[1]", "result": "2 (33.3) n (%)"}, {"measurement": "Subjects with an AE considered unrelated to study drug", "setting": "[1]", "result": "1 (16.7) n (%)"}, {"measurement": "Subjects with at least 1 AE", "setting": "[1]", "result": "3 (50.0) n (%)"}, {"measurement": "Subjects who discontinued due to AE", "setting": "[2]", "result": "None"}, {"measurement": "Subjects with Mild AE", "setting": "[2]", "result": "2 (33.3%) n (%)"}, {"measurement": "Subjects with Moderate AE", "setting": "[2]", "result": "1 (16.7%) n (%)"}, {"measurement": "Subjects with SAE", "setting": "[2]", "result": "No SAEs"}, {"measurement": "Subjects with an AE considered related to study drug", "setting": "[2]", "result": "2 (33.3%) n (%)"}, {"measurement": "Subjects with an AE considered unrelated to study drug", "setting": "[2]", "result": "1 (16.7%) n (%)"}, {"measurement": "Subjects with at least 1 AE", "setting": "[2]", "result": "3 (50%) n (%) and 3 n (%)"}, {"measurement": "Clinically notable Body temperature: Change in body temperature > 1.8% from the subjects baseline temperature recordings", "setting": "[3]", "result": "1 (16.7) n (%)"}, {"measurement": "Clinically notable Diastolic blood pressure: Average diastolic blood pressure ≥ 95 mmHg or ≤ 60 mmHg", "setting": "[3]", "result": "2 (33.3) n (%)"}, {"measurement": "Clinically notable ECG mean heart rate: Ventricular rate ≥ 100 beats/min or ≤ 60 beats/min", "setting": "[3]", "result": "2 (33.3) n (%)"}, {"measurement": "Clinically notable PR interval, single beat: PR interval ≥ 200 msec or ≤ 120 msec", "setting": "[3]", "result": "2 (33.3) n (%)"}, {"measurement": "Clinically notable Pulse rate: Pulse change by > 20% from the study baseline value/recordings", "setting": "[3]", "result": "2 (33.3) n (%)"}, {"measurement": "Clinically notable QRS duration, single beat: QRS duration ≥ 100 msec or ≤ 80 msec", "setting": "[3]", "result": "4 (66.7) n (%)"}, {"measurement": "Clinically notable QT interval, single beat: QT interval ≥ 440 msec or ≤ 350 msec", "setting": "[3]", "result": "1 (16.7) n (%)"}, {"measurement": "Clinically notable Systolic blood pressure: Blood pressure change by > 20% from the study baseline value/recordings", "setting": "[3]", "result": "1 (16.7) n (%)"}, {"measurement": "changes in vital sign parameters from baseline", "setting": "baseline to Day 1 2 hours and 4 hours, Day 2, Day 3, Day 4", "result": "no major changes"}, {"measurement": "changes in ECG parameters from baseline", "setting": "baseline to Day 1 predose and 2 hours, Day 2, Day 3, Day 4", "result": "no major changes"}, {"measurement": "overall safety and tolerability", "setting": "single oral dose 150 mg, 6 healthy postpartum women", "result": "safe and well tolerated"}]}]}
